Legend:
[1] = system: non-small cell lung cancer cell line H460; experiment: H460 proliferation assay in the presence of 3 uM ASP9521 (AKR1C3 specific inhibitor); assay type: cell-based, human; settings: H460 cells, CellTiter-Glo, 72 hours, in the presence of 3 uM ASP9521 added 4 hours prior to compounds; read-out: CTG H460: Avg IC50 (nM) [Assay Condition: ASP9521]
Method in brief: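 H460 cells pre-incubated 24 h, then exposed to compounds for 72 h at 37 °C, 5% CO2. Viability read by CellTiter-Glo. ASP9521 (3 uM, AKR1C3 inhibitor) added 4 h before compounds.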

[2] = system: non-small cell lung cancer cell line H460; experiment: In vitro human cancer cell line cytotoxicity (proliferation) assay in H460, CellTiter-Glo, 72 hours; assay type: cell-based; settings: H460 cells, DMSO condition (no AKR1C3 inhibitor), read-out: CTG H460: Avg IC50 (nM) [Assay Condition: DMSO]
Method in brief: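 H460 cells were seeded at 3×10^3 per well and grown 24 h at 37 °C, 5% CO2 before compound addition from 10 mM DMSO stocks. After 72 h further incubation, viability was measured by CellTiter-Glo, and IC50 values in nM were derived from the proliferation data.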

| Structure (SMILES) | IC50 [1] [nM] | IC50 ([2]; Homo sapiens, NCI-H460, 72 h) [nM] | IC50 [2] [nM] |
| --- | --- | --- | --- |
| CC(OP(=O)(N1CC1)N1CC1)c1cc2cc(Oc3ccc4c(c3)OC(F)(F)O4)c([N+](=O)[O-])cc2o1 (stereo not shown) [Example 546] | 4690 | < 10 |  |
| CC(C)Oc1cccc(Oc2cc3cc(COP(=O)(N4CC4)N4CC4)oc3cc2[N+](=O)[O-])c1 [Example 547] | 1260 |  | < 10 |
| CC(OP(=O)(N1CC1)N1CC1)c1cc2cc(Oc3cccc(C(=O)N4CCC(F)(F)CC4)c3)c([N+](=O)[O-])cc2o1 (stereo not shown) [Example 548] | 2140 |  | < 10 |
| CC(OP(=O)(N1CC1)N1CC1)c1cc2cc(Oc3cccc(C(=O)N4CCC4)c3)c([N+](=O)[O-])cc2o1 (stereo not shown) [Example 549] | 5130 |  | 10 to 50 |
| C[C@@H](OP(=O)(N1CC1)N1CC1)c1cc2cc(Oc3ccc4c(c3)OC(F)(F)O4)c([N+](=O)[O-])cc2o1 [Example 550] | 2510 | < 10 |  |
| C[C@H](OP(=O)(N1CC1)N1CC1)c1cc2cc(Oc3ccc4c(c3)OC(F)(F)O4)c([N+](=O)[O-])cc2o1 [Example 551] | 2600 | < 10 |  |
| C[C@H](OP(=O)(N1CC1)N1CC1)c1cc2cc(Oc3cccc(C(=O)N4CC(F)(F)C4)c3)c([N+](=O)[O-])cc2o1 [Example 552] | 5870 |  | 10 to 50 |
| C[C@@H](OP(=O)(N1CC1)N1CC1)c1cc2cc(Oc3cccc(-c4ccccn4)c3)c([N+](=O)[O-])cc2o1 [Example 553] | 2950 |  | 10 to 50 |
| C[C@H](OP(=O)(N1CC1)N1CC1)c1cc2cc(Oc3cccc(-c4ccccn4)c3)c([N+](=O)[O-])cc2o1 [Example 554] | 6070 |  | < 10 |
| O=[N+]([O-])c1cc2oc(COP(=O)(N3CC3)N3CC3)cc2cc1Oc1cccc(C2CC2)c1 [Example 555] | 1490 |  | < 10 |
| O=C(c1cccc(Oc2cc3cc(COP(=O)(N4CC4)N4CC4)oc3cc2[N+](=O)[O-])c1)N1CCOCC1 [Example 556] | 1060 |  | < 10 |
| C[C@H](OP(=O)(N1CC1)N1CC1)c1cc2cc(Oc3cccc(C(=O)N4CCOCC4)c3)c([N+](=O)[O-])cc2o1 [Example 557] | 7310 |  | 10 to 50 |
| C[C@H](OP(=O)(N1CC1)N1CC1)c1cc2cc(Oc3cccc(C(=O)N4CCC(F)(F)C4)c3)c([N+](=O)[O-])cc2o1 [Example 558] | 3960 |  | 10 to 50 |
| C[C@@H](OP(=O)(N1CC1)N1CC1)c1cc2cc(Oc3cccc(C(=O)N4CCC4)c3)c([N+](=O)[O-])cc2o1 [Example 559] | 7000 |  | 10 to 50 |
| C[C@@H](OP(=O)(N1CC1)N1CC1)c1cc2cc(Oc3cccc(C4CC4)c3)c([N+](=O)[O-])cc2o1 [Example 561] | 4230 |  | 10 to 50 |
| C[C@H](OP(=O)(N1CC1)N1CC1)c1cc2cc(Oc3cccc(C4CC4)c3)c([N+](=O)[O-])cc2o1 [Example 562] | 3040 |  | < 10 |
| C[C@H](OP(=O)(N1CC1)N1CC1)c1cc2cc(Oc3cccc(C(=O)N4CCC(F)(F)CC4)c3)c([N+](=O)[O-])cc2o1 [Example 563] | 2110 |  | < 10 |
| C[C@@H](OP(=O)(N1CC1)N1CC1)c1cc2cc(Oc3ccc4c(c3)CN(C)C4=O)c([N+](=O)[O-])cc2o1 [Example 564] | 2690 |  | 10 to 50 |
| C[C@H](OP(=O)(N1CC1)N1CC1)c1cc2cc(Oc3ccc4c(c3)CN(C)C4=O)c([N+](=O)[O-])cc2o1 [Example 565] | 5930 |  | 10 to 50 |
| C[C@@H](OP(=O)(N1CC1)N1CC1)c1cc2cc(Oc3cccc(C(=O)N(C)C)c3)c([N+](=O)[O-])cc2o1 [Example 566] | 6380 |  | 10 to 50 |
| C[C@@H](OP(=O)(N1CC1)N1CC1)c1cc2cc(Oc3cncc(-c4ccccc4)c3)c([N+](=O)[O-])cc2o1 [Example 567] | 2110 |  | < 10 |
| C[C@H](OP(=O)(N1CC1)N1CC1)c1cc2cc(Oc3cncc(-c4ccccc4)c3)c([N+](=O)[O-])cc2o1 [Example 568] | 1920 |  | < 10 |
| CN1Cc2ccc(Oc3cc4cc(COP(=O)(N5CC5)N5CC5)oc4cc3[N+](=O)[O-])cc2C1=O [Example 569] | 937 |  | < 10 |

Reference: patent US20260167656A1, “PHOSPHORAMIDATE COMPOUNDS AND USES THEREOF” (ALLORION THERAPEUTICS INC, priority 2022, published 2026)
